The text below walks through data of ChEMBL document CHEMBL1155703, “Sequences and antimycoplasmic properties of longibrachins LGB II and LGB III, two novel 20-residue peptaibols from Trichoderma longibrachiatum” (J Nat Prod, 2001).

In brackets after ≈: the same amount, converted by molar mass. Square brackets hold non-standard residues; d marks the D form. Peptide text beside a SMILES is read from it. * marks the point of attachment. X2 = OC[C@H](Cc1c[nH]c2ccccc12)N*; Aib = CC(C)(N)C(=O)O

By MIC is commonly meant the lowest concentration that inhibits growth of the organism. Higher therefore signals a less susceptible organism.

A short description of data set [1]: Bilayer membrane permeabilization assessed as lipid to peptide ratio allowing 50% leakage of entrapped carboxyfluorescein from egg phosphatidylcholine-cholesterol liposomes at 1.36 uM at 20 mins by spectrofluorimetry. In kind it is physicochemical.
Data set [2] in a line: Bilayer membrane permeabilization assessed as lipid to peptide ratio allowing 50% leakage of entrapped carboxyfluorescein from egg phosphatidylcholine-cholesterol liposomes at 0.49 uM at 20 mins by spectrofluorimetry. In kind it is physicochemical.
Data set [3] concerns Mycoplasmoides gallisepticum. The data set can be described thus: Antimicrobial activity against Mycoplasma gallisepticum S6 after 2 hrs. Type of data set: functional.
In data set [4] the test system is Mycoplasma mycoides subsp. mycoides SC. Put plainly: Antimicrobial activity against Mycoplasma mycoides subsp. mycoides SC KH3J after 2 hrs. In kind it is functional.
A short description of data set [5]: Bilayer membrane permeabilization assessed as lipid to peptide ratio allowing 50% leakage of entrapped carboxyfluorescein from egg phosphatidylcholine-cholesterol liposomes at 0.13 uM at 20 mins by spectrofluorimetry. In kind it is physicochemical.
A further data set concerns Spiroplasma citri. Put plainly: Antimicrobial activity against Spiroplasma citri R8A2 after 2 hrs. In kind it is functional. The settings on record: R8A2, 2 h.
The next data set concerns Spiroplasma apis. The data set can be described thus: Antimicrobial activity against Spiroplasma apis B31 after 2 hrs. Type of data set: functional.
A further data set has as its system Spiroplasma floricola. The data set can be described thus: Antimicrobial activity against Spiroplasma floricola BNR1 after 2 hrs. Type of data set: functional.
In a further data set the test system is Acholeplasma laidlawii. Put plainly: Antimicrobial activity against Acholeplasma laidlawii PG-8A after 2 hrs. In kind it is functional.
A short description of data set [6]: Bilayer membrane permeabilization assessed as lipid to peptide ratio allowing 50% leakage of entrapped carboxyfluorescein from egg phosphatidylcholine-cholesterol liposomes at 0.40 uM at 20 mins by spectrofluorimetry. Type of data set: physicochemical. The settings on record: 0.4 µM.

Consider `CC[C@H](C)[C@H](NC(=O)C(C)(C)NC(=O)[C@@H](NC(=O)[C@@H]1CCCN1C(=O)C(C)(C)NC(=O)[C@H](CC(C)C)NC(=O)[C@H](CO)NC(=O)C(C)(C)NC(=O)C(C)(C)NC(=O)C(C)(C)NC(=O)[C@H](CCC(N)=O)NC(=O)C(C)(C)NC(=O)C(C)(C)NC(=O)[C@H](C)NC(=O)[C@H](C)NC(=O)C(C)(C)NC(C)=O)C(C)C)C(=O)N[C@@H](CCC(N)=O)C(=O)N[C@@H](CCC(=O)O)C(=O)N[C@H](CO)Cc1c[nH]c2ccccc12` (Ac-[Aib]AA[Aib][Aib]Q[Aib][Aib][Aib]SL[Aib]PV[Aib]IQE-X2), for which the Ratio in data set [1] was 295.

With `CC[C@@](C)(NC(=O)C(C)(C)NC(=O)[C@H](C)NC(=O)[C@H](CO)NC(=O)C(C)(C)NC(C)=O)C(=O)N[C@@H](CCC(N)=O)C(=O)NC(C)(C)C(=O)N[C@H](C(=O)NC(C)(C)C(=O)NCC(=O)N[C@@H](CC(C)C)C(=O)NC(C)(C)C(=O)N1CCC[C@H]1C(=O)N[C@@H](CC(C)C)C(=O)NC(C)(C)C(=O)NC(C)(C)C(=O)N[C@@H](CCC(N)=O)C(=O)N[C@H](CO)Cc1ccccc1)C(C)C`, the Ratio in [2] is recorded as 1220.

Consider `CC[C@@](C)(NC(=O)C(C)(C)NC(=O)[C@@H](NC(=O)[C@@H]1CCCN1C(=O)C(C)(C)NC(=O)[C@H](CC(C)C)NC(=O)CNC(=O)C(C)(C)NC(=O)[C@@H](NC(=O)C(C)(C)NC(=O)[C@H](CCC(N)=O)NC(=O)C(C)(C)NC(=O)C(C)(C)NC(=O)[C@H](C)NC(=O)C(C)(C)NC(=O)[C@H](C)NC(=O)C(C)(C)NC(C)=O)C(C)C)C(C)C)C(=O)N[C@@H](CCC(N)=O)C(=O)N[C@@H](CCC(N)=O)C(=O)N[C@H](CO)Cc1ccccc1`, for which the MLC (in data set [3]; in the data set with Spiroplasma apis; in the data set on Spiroplasma floricola; in the data set with Acholeplasma laidlawii) was 3.12 µM (≈ 6.13 µg/mL) throughout. For the same molecule, the MIC in data set [3] (Mycoplasmoides gallisepticum, S6, 2 h) stood at 6.25 µM (≈ 12.3 µg/mL); in data set [4] it was 6.25 µM (≈ 12.3 µg/mL); in the data set on Spiroplasma citri it was 3.12 µM (≈ 6.13 µg/mL); against Spiroplasma apis (Spiroplasma apis, B31, 2 h), 6.25 µM (≈ 12.3 µg/mL); in the data set with Spiroplasma floricola (Spiroplasma floricola, BNR1, 2 h) it was 6.25 µM (≈ 12.3 µg/mL); against Acholeplasma laidlawii (Acholeplasma laidlawii, PG-8A, 2 h) it was 0.78 µM (≈ 1.53 µg/mL). Also, the Ratio in data set [5] turned out to be 4545.

`CC[C@@](C)(NC(=O)C(C)(C)NC(=O)[C@@H](NC(=O)[C@@H]1CCCN1C(=O)C(C)(C)NC(=O)C(C)(C)NC(=O)CNC(=O)C(C)(C)NC(=O)C(C)(C)NC(=O)[C@H](CC(C)C)NC(=O)C(C)(C)NC(=O)[C@H](CCC(N)=O)NC(=O)C(C)(C)NC(=O)[C@H](C)NC(=O)C(C)(C)NC(=O)[C@H](C)NC(=O)C(C)(C)NC(C)=O)C(C)C)C(=O)N[C@@H](CCC(N)=O)C(=O)N[C@@H](CCC(N)=O)C(=O)N[C@H](CO)Cc1ccccc1`: the Ratio in data set [6] is given as 1000.
